Broadly, the EC50 is the concentration that produces a half-maximal response.

The text below walks through data of patent US8367659B2, “Oxazinyl isoflavonoid compounds, medicaments and use” (Marshall Edwards, Inc., priority 2007, dated 2013).

“Also recorded” adds a separate entry of the source. Like-named read-outs stand apart in the source and are kept apart here. Marks after values point to notes of the source that are not given here.

One series relates to MDA-MB-468. The series is described as follows: Anti-cancer activity, MDA-MB-468 breast cancer cells (MTT). Format: cell-based. The settings on record: Homo sapiens, MDA-MB-468, 120 h, 5 days.
Series [1] has as its system neonatal foreskin fibroblasts (NFF). Description: Toxicity to normal cells, neonatal foreskin fibroblasts. Conditions: Fibroblast. Type of series: cell-based. The protocol: IC50 values were determined for each cell line. Cells were seeded in 96-well plates at an appropriate cell density as determined from growth kinetics analysis and cultured for 5 days in the absence and presence of the test compounds. Cell proliferation was assessed after the addition of 20 μl of 3-4,5 dimethylthiazol-2,5-diphenyl tetrazolium bromide (MTT, 2.5 mg/ml in PBS, Sigma) for 3-4 hrs at 37° C. according to manufacturer's instructions. IC50 values were calculated from semi-log plots of % of control proliferation on the y-axis against log dose on the x-axis.
The neonatal foreskin fibroblasts (NFF) were a gift from Dr. Peter Parsons (Queensland Institute of Medical Research). Rabbit kidney (RK-13) cells were obtained from Miller Whalley (Macquarie University). Both cell lines were cultured in RPMI supplemented with 10% FCS(CSL, Australia), penicillin (100 U/ml), streptomycin ([…]), L-glutamine (2 mM) and sodium bicarbonate (1.2 g/L), and cultured at 37° C. in a humidified atmosphere of 5% CO2. IC50 values were determined as described above.

Another series concerns unstimulated lymphocytes. Description: Unstimulated lymphocytes, viable cell number (MTT). Format: cell-based, Skh-1:HR 1 (hairless) mice. The settings on record: 10 μM; absence of mitogenic stimulation. Here is the method: Male Skh-1:HR 1 (hairless) mice, approximately six weeks old were killed by cervical dislocation. Single cell suspensions were made from the spleen and erythrocytes were lysed in buffer (0.14 M NH4Cl, 17 mM Tris, pH 7.2). The remaining splenocytes were cultured in RPMI-1640 (Gibco) supplemented with 10% (v:v) FBS, 200 mM L-glutamine, penicillin/streptomycin and […] 2-mercaptoethanol. Splenocytes were added to quadruplicate wells containing either concanavalin A (ConA, Sigma-Aldrich—0.4 μg/well), LPS (Sigma-Aldrich—1 μg/well) or no mitogen, as well 10 μM of test compound in DMSO. Samples were analysed after 3 days incubation at 37° C. in 5% CO2 in air. Methylthiazoletetrazolium (MTT) is bioreduced by viable cells into a coloured formazan product that is soluble in DMSO. Thus the quantity of formazan product is directly proportional to the number of living cells in culture, and can be measured using a spectrophotometer at 570 nm. MTT was added to each well, incubated for a further 4 hrs and then colour developed with 0.04 N HCl in isopropanol. Culture supernatants were stored after collection at −80° C. and analysed by ELISA (BD Biosciences) for IFN-γ (a Th-1 cytokine) and for T cells alone, IL-6 (a Th-2 cytokine).

Series [2] relates to PGE2 synthesis in RA-stimulated U937 cells. The series is described as follows: PGE2 synthesis in RA-stimulated U937 cells. Type of series: cell-based, human. Here is the method: U937 cells were thawed and resuspended in RPM1 and 10% FCS at 2×10^5 cells per ml. The cells were incubated in 5% CO2 at 37° C. and expanded in growing culture to at least 6.4×10^7 total cells. The cells were then resuspended in fresh medium and cultured with […] (RA) at 2×10^5 cells per ml for a further 3 days (72 h). RA treated cells were washed 2× in serum-free RPM and resuspended in serum-free medium at 5×10^6 cells per ml. The cells were aliquotted into Teflon tubes at 1 ml per tube. Working stock solutions of each test compound were prepared at 0.1 mM, 1 mM and 10 mM as described above. For each test compound at each working dilution, 10 μl was added to 1 ml cells to achieve a final concentration of 0 (DMSO alone), 1, 10, and 100 μM for each test compound. Cells were incubated in triplicate with each concentration of test compound for 15 min at 37° C. After 15 min pre-incubation, each 1 ml tube of cells received 5 μl of a […] solution of the calcium ionophore A23187 (to achieve 0.5 μM A23187). Incubation at 37° C. was continued for a further 30 min. After incubation, supernatants were collected by centrifugation at 2000 rpm for 10 min and stored at −20° C. until required for assay.

For another series, the system named is cancer cell lines. The series is described as follows: Anti-cancer activity, cancer cell lines tested as a group (MTT). The settings on record: read-out: IC50 against all cancer cell lines tested. Format: cell-based.
The subject of another series is A10 smooth muscle cells. Description: Proliferation of A10 smooth muscle cells from the media of rat aorta. Format: cell-based. Conditions: A10, 72 h, three days, read-out: IC50, inhibition of proliferation in A10 cells. The protocol:
The effect of test compounds on human umbilical vein smooth muscle cells (HUVSMC), was examined. Cells, tissue explants from a neonate (HRI—passage 2), were seeded into 96 well plates at 1×10^3 cells per well, and allowed to attach for 24 hours. They were then washed twice and incubated in medium without foetal calf serum (FCS) for 24-48 hours to serum-starve them. Test compounds were prepared in medium without FCS and added to the plates and incubated for one hour. Medium with FCS was added to give a final concentration of 10% and the plates incubated for 4-5 days until the controls were just confluent.
The effect of test compounds on rat aortic smooth muscle cell line (A7r5) and another cell line from the media of rat aorta (A10) was examined. The methodology was the same as for HUVSMC, except that the cells were treated with compound for three days.

Series [3] can be described thus: Free radical scavenging with DPPH. Conditions: for EC50: DPPH, read-out: Free radical scavenging ability EC50. The gist of the method:
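Compounds reacted with DPPH in ethanol for 20 min, screened at 100 μM, and absorbance at 517 nm compared with a DPPH-ethanol blank. IC50 was taken as the concentration giving a 0.6 absorbance change, with 1.2 units representing total scavenging.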
(In general: DPPH is a stable violet radical that fades when it is reduced.)

Setting [4] is: normal, non-transformed cells, read-out: IC50 μM, NFF Fibroblast.
Setting [5] is: read-out: toxicity to normal fibroblast cell line / NFFs (IC50).

Regarding `Oc1ccc(C2=Cc3cc4c(cc3OC2)OCN(Cc2ccccc2)C4)cc1` [Compound 1, 4-(3-Benzyl-2,3,4,8-tetrahydrochromeno[6,7-e][1,3]oxazin-7-yl)phenol], the IC50 with MDA-MB-468 is 5.25 ± 2.1 µM; in series [1] (setting [4]), 15.1 µM; in series [1] (setting [5]) it was around 15 µM; in the series with cancer cell lines, 5 to 20 µM; with A10 smooth muscle cells, 11 µM. Besides, the “reduction of viable cell numbers” value in the series on unstimulated lymphocytes was “approximately 50%”. For the same compound, the “PGE2” value in series [2] (test compound 1 μM, A23187) is recorded as 1.431 ± 0.154 pg; in series [2] (test compound 10 μM, A23187), 0.702 ± 0.237 pg; in series [2] (test compound 100 μM, A23187), 0.555 ± 0.064 pg.
On to `CC(c1ccccc1)N1COc2cc3c(cc2C1)C=C(c1ccc(O)cc1)CO3` (stereo not shown) [Compound 2, 4-(3-(1-Phenylethyl)-2,3,4,8-tetrahydrochromeno[6,7-e][1,3]oxazin-7-yl)phenol], for which the IC50 was 4.87 ± 2.6 µM in the series with MDA-MB-468, 33.2 µM in series [1] (setting [4]), above 30 µM in series [1] (setting [5]) and 5 to 20 µM in the series with cancer cell lines. The “reduction of viable cell numbers” value in the series with unstimulated lymphocytes is given as “approximately 50%”. In addition, the EC50 in series [3] (20 minutes, absorbance 517 nm, Table 4) worked out at 21.4 µM. In series [2], the “effect on PGE2 synthesis” value is “inhibit PGE2 synthesis”. Further, the “PGE2” value in series [2] (test compound 1 μM, A23187) came to 1.303 ± 0.044 pg; in series [2] (test compound 10 μM, A23187), 0.948 ± 0.111 pg. Also, in series [2] (test compound 100 μM, A23187), the “PGE2 (pg)” value is recorded as 0.158 ± 0.027^a pg.
With `Oc1cccc(C2=Cc3ccc(O)cc3OC2)c1` [Compound 37-DHE, 3′,7-dihydroxy-isoflav-3-ene, reference compound], in series [3] (100 μM, ΔAbs>0.3 criterion), the “free radical scavenging / antioxidant activity in DPPH screen” value is listed as “free radical scavenging activity; also recorded: potent free radical scavenging ability”. Besides, in series [3] (comparative, Table 13), the concentration giving a half-maximal response (EC50) stood at 55 µM. Further, in the series with A10 smooth muscle cells, the IC50 is 31 µM.
